Our source for the IC50 values is US12617784B2, “AKT inhibitor” (Nanjing Chia Tai Tianqing Pharmaceutical Co., Ltd., priority 2019, dated 2026).

Structures can show the parent of a compound that is named as a salt.

As usually defined, the IC50 is the concentration at which inhibition is half-maximal.

Experiment [1] addresses AKT1 (Homo sapiens, UniProt P31749). As to the kind of experiment: In vitro enzyme activity test (HTRF kinEASE TK), AKT1. Format: biochemical. The note with it: ATP 2 μM, enzyme 0.6 ng/well, reaction 50 min. As to the method: (§1) Experimental Procedure 2.1 Preparation of Reagents
(§2) 1 mL 1× Kinase Reaction Buffer of Kinase AKT1, AKT2 and AKT3 contain 200 μL 5× Kinase Reaction Buffer, 5 μL 1 M MgCl2, 1 μL 1 M DTT and 794 μL ultrapure water.
(§3) In addition to the control wells, 4 μL of the diluted compound working solutions were added to all reaction wells.
(§4) b) 2 μL of the previously prepared TK-biotin substrate solution was added to all reaction wells.
(§5) c) 2 μL of the previously prepared enzyme solution was added to all reaction wells, except the negative wells. The volume of the negative well was filled with 2 μL of enzyme corresponding to 1× kinase reaction buffer. The plate was sealed with sealing film. After mixing, the plate was incubated at room temperature for 10 min to allow the compound and enzyme to fully combined.
(§6) d) 2 μL of ATP solution was added to all reaction wells to start the kinase reaction.
(§7) e) The test solution was prepared 5 min before the end of the kinase reaction.
(§8) f) After the kinase reaction was completed, 5 μL of diluted streptavidin-XL665 were added to all reaction wells, and immediately the diluted europium-labeled tyrosine kinase substrate antibody detection solution was added after mixing.
(§9) g) The plate was sealed and mixed well. […] The inhibition rate of each well was calculated through the fully active wells and the background signal wells, taking the average value in case of multiple wells. Meanwhile, the professional drawing analysis software PRISM 6.0 was used to fit the half maximal inhibitory concentration (IC50) of each test compound.
(In general: TR-FRET usually uses a lanthanide donor and a delayed reading to cut background.)

In experiment [2] the target is T1, AKT3 (Homo sapiens, UniProt Q9Y243).
T1 construct: purchased Invitrogen PV3185
T1 sequence (Q9Y243 whole entry): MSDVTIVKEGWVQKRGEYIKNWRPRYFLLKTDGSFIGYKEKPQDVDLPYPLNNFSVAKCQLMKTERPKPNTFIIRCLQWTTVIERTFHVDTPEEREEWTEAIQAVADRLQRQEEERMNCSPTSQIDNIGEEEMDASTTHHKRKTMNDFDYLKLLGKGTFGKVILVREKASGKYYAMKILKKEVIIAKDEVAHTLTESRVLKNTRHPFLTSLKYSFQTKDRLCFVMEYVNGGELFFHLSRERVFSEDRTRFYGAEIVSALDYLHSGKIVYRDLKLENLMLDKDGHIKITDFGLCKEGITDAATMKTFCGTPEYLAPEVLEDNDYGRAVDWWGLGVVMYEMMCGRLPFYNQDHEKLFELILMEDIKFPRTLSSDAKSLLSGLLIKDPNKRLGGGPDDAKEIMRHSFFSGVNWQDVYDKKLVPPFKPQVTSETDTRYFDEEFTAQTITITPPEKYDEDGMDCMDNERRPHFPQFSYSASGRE
Description: In vitro enzyme activity test (HTRF kinEASE TK), AKT3. Format: biochemical. The note with it: enzyme 0.3 ng/well, reaction 50 min. As to the method:
as §1, §2, §3, §4, §5, §6, §7, §8, §9

AKT1, sequence (P31749 whole entry): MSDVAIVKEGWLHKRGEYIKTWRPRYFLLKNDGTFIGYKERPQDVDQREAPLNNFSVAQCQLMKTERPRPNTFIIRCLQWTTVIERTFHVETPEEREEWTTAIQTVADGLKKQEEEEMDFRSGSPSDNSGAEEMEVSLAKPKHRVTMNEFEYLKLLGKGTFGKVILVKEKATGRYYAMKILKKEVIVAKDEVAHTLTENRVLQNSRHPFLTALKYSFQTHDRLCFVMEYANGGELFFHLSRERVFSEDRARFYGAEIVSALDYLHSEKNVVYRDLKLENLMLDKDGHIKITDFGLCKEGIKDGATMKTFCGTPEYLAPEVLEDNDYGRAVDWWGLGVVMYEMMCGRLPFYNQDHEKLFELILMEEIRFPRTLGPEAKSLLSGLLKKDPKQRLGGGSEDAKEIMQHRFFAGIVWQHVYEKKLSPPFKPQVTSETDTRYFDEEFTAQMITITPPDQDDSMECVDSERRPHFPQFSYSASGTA

Take `CC(C)NC[C@@H](C(=O)N1CC2CCC(C1)N2c1ncnc2c1[C@@H](C)OC(=O)N2)c1ccc(Cl)cc1` (single isomer, unassigned) [Example 33 Isomer 2]: the results for the IC50 in experiment [1] and in experiment [2] were 260 nM and 55 nM, respectively.

With `CC(C)NC[C@@H](C(=O)N1CCN(c2ncnc3c2[C@H](C)OC(=O)N3)[C@@H]2C[C@@H]21)c1ccc(Cl)cc1` (single isomer, unassigned) [Example 34 Isomer 1], the figures for the IC50 in experiment [1] and in experiment [2] were 186 nM and 45 nM, respectively.

As to `CC(C)NC[C@@H](C(=O)N1C[C@@H]2CN(c3ncnc4c3[C@H](C)CC(=O)N4)C[C@@H]2C1)c1ccc(Cl)cc1` [Example 13 cis-isomer, cis-(5R)-4-(5-((S)-2-(4-chlorophenyl)-3-(isopropylamino)propionyl)hexahydropyrrole[3,4-c]pyrrole-2(1H)-yl)-5-methyl-5,8-dihydropyrido[2,3-d]pyrimidin-7(6H)-one], the values for the IC50 in experiment [1] and in experiment [2] were 285 nM and 6.6 nM, respectively.

Consider `CC(C)NC[C@@H](C(=O)N1CC2CCC(C1)N2c1ncnc2c1[C@H](C)CC(=O)N2)c1ccc(Cl)cc1` [Example 11, (R)-4-(3-((S)-2-(4-chlorophenyl)-3-(isopropylamino)propionyl)-3,8-diazabicyclo[3.2.1]octan-8-yl)-5-methyl-5,8-dihydropyrido[2,3-d]pyrimidin-7(6H)-one], for which the values for the IC50 in experiment [1] and in experiment [2] were 3.5 nM and 0.25 nM, respectively.

As for `CC(C)NC[C@@H](C(=O)N1CCN(c2ncnc3c2C(C)CC(=O)N3)CC1)c1ccc(Cl)cc1` (stereo partly drawn) [Example 1, 4-(4-((S)-2-(4-chlorophenyl)-3-(isopropylamino)propionyl)piperazin-1-yl)-5-methyl-5,8-dihydropyrido[2,3-d]pyrimidin-7(6H)-one], the IC50 in experiment [1] is 2.4 nM; in experiment [2] it was 1.6 nM.

On to `CC(C)NC[C@@H](C(=O)N1CCN(c2ncnc3c2C[C@@H](C)C(=O)N3)CC1)c1ccc(Cl)cc1` (single isomer, unassigned) [Example 19 Isomer 1], for which the IC50 in experiment [1] was found to be 82 nM; in experiment [2] it was 18 nM.

Consider `CC(C)NC[C@@H](C(=O)N1CCN(c2ncnc3c2[C@@H](C)OC(=O)N3)CC1)c1ccc(Cl)cc1` (single isomer, unassigned) [Example 23 Isomer 2], for which the IC50 in experiment [1] stood at 201 nM; in experiment [2], 42 nM.

In the case of `CC(C)NC[C@@H](C(=O)N1CCN(c2ncnc3c2[C@H](C)OC(=O)N3)CC1)c1ccc(Cl)cc1` (single isomer, unassigned) [Example 24 Isomer 1], the IC50 was 354 nM in experiment [1] and 61 nM in experiment [2].

Consider `CC(C)NC[C@@H](C(=O)N1CCN(c2ncnc3c2CC(C)C(=O)N3)CC1)c1ccc(Cl)cc1` (stereo partly drawn) [Example 19, 4-(4-((S)-2-(4-chlorophenyl)-3-(isopropylamino)propionyl)piperazin-1-yl)-6-methyl-5,8-dihydropyrido[2,3-d]pyrimidin-7(6H)-one hydrochloride], for which the values for the IC50 in experiment [1] and in experiment [2] were 58.5 nM and 7.4 nM, respectively.

Turning to `CC(C)NC[C@@H](C(=O)N1CCN(c2ncnc3c2[C@H](C)OC(=O)N3)CC1)c1ccc(Cl)cc1` (single isomer, unassigned) [Example 23 Isomer 1], the IC50 turned out to be 1.5 nM in experiment [1] and 0.19 nM in experiment [2].

Regarding `CC(C)NC[C@@H](C(=O)N1CCN(c2ncnc3c2N(C)CC(=O)N3)CC1)c1ccc(Cl)cc1` [Example 20, (S)-4-(4-(2-(4-chlorophenyl)-3-(isopropylamino)propionyl)piperazin-1-yl)-5-methyl-5,8-dihydropteridine-7(6H)-one hydrochloride], the IC50 in experiment [1] stood at 1.1 nM; in experiment [2], 0.4 nM.

With `CC(C)NC[C@@H](C(=O)N1CCN(c2ncnc3c2[C@H](C)CC(=O)N3)CC12CC2)c1ccc(Cl)cc1` [Example 12, (R)-4-(4-((S)-2-(4-chlorophenyl)-3-(isopropylamino)propionyl)-4,7-diazaspiro[2.5]octan-7-yl)-5-methyl-5,8-dihydropyrido[2,3-d]pyrimidin-7(6H)-one], the IC50 in experiment [1] turned out to be 55.1 nM; in experiment [2] it was 4.8 nM.

Take `CC(C)NC[C@@H](C(=O)N1CCN(c2ncnc3c2C[C@H](C)C(=O)N3)CC1)c1ccc(Cl)cc1` (single isomer, unassigned) [Example 19 Isomer 2]: the IC50 in experiment [1] stood at 25 nM; in experiment [2] it was 9.1 nM.

As for `CC(C)NC[C@@H](C(=O)N1CCN(c2ncnc3c2CCC(=O)N3)CC1)c1ccc(Cl)cc1` [Example 3, (S)-4-(4-(2-(4-chlorophenyl)-3-(isopropylamino)propionyl)piperazin-1-yl)-5,8-dihydropyrido[2,3-d]pyrimidin-7(6H)-one], the IC50 in experiment [1] was determined as 52.4 nM; in experiment [2], 7.5 nM.

Take `CC(C)NC[C@@H](C(=O)N1C2CCC1CN(c1ncnc3c1[C@@H](C)OC(=O)N3)C2)c1ccc(Cl)cc1` (single isomer, unassigned) [Example 32 Isomer 2]: the IC50 was found to be 25 nM in experiment [1] and 9.8 nM in experiment [2].

Take `CC(C)NC[C@@H](C(=O)N1CCN(c2ncnc3c2[C@H]2C[C@H]2C(=O)N3)CC1)c1ccc(Cl)cc1` (single isomer, unassigned) [Example 40 Isomer 2]: the IC50 in experiment [1] turned out to be 82 nM; in experiment [2], 61 nM.

For the molecule `CC(C)NC[C@@H](C(=O)N1CC2CCC(C1)N2c1ncnc2c1[C@H](C)OC(=O)N2)c1ccc(Cl)cc1` (single isomer, unassigned) [Example 33 Isomer 1], the IC50 in experiment [1] was determined as 1.6 nM; in experiment [2] it was 0.2 nM.

Regarding `CC(C)NC[C@@H](C(=O)N1CCN(c2ncnc3c2N(C)C(=O)CN3)CC1)c1ccc(Cl)cc1` [Example 35, (S)-4-(4-(2-(4-chlorophenyl)-3-(isopropylamino)propionyl)piperazin-1-yl)-5-methyl-7,8-dihydropteridine-6(5H)-one], the IC50 turned out to be 146 nM in experiment [1] and 212 nM in experiment [2].

As to `CC(C)NC[C@@H](C(=O)N1CCN(c2ncnc3c2[C@@H]2C[C@@H]2C(=O)N3)CC1)c1ccc(Cl)cc1` (single isomer, unassigned) [Example 40 Isomer 1], the IC50 in experiment [1] turned out to be 14 nM; in experiment [2], 12 nM.

Regarding `CC(C)NC[C@@H](C(=O)N1CCN(c2ncnc3c2[C@@H](C)OC(=O)N3)[C@H]2C[C@H]21)c1ccc(Cl)cc1` (single isomer, unassigned) [Example 34 Isomer 3], the IC50 amounted to 429 nM in experiment [1] and 232 nM in experiment [2].

Take `CC(C)NC[C@@H](C(=O)N1CCN(c2ncnc3c2N(C)CC(=O)N3)[C@H]2C[C@H]21)c1ccc(Cl)cc1` (single isomer, unassigned) [Example 27 Isomer 1]: the IC50 worked out at 22 nM in experiment [1] and 0.48 nM in experiment [2].

On to `CC(C)NC[C@@H](C(=O)N1CCN(c2ncnc3c2C(C)OC(=O)N3)CC1)c1ccc(Cl)cc1` (stereo partly drawn) [Example 23, 5-(4-((S)-2-(4-chlorophenyl)-3-(isopropylamino)propionyl)piperazin-1-yl)-4-methyl-1,4-dihydro-2H-pyrimido[4,5-d][1,3]oxazin-2-one formate], for which the IC50 came out at 6 nM in experiment [1] and 1.2 nM in experiment [2].

Turning to `CC(C)NC[C@@H](C(=O)N1CC2CCC(C1)N2c1ncnc2c1N(C)CC(=O)N2)c1ccc(Cl)cc1` [Example 26], the IC50 in experiment [1] came out at 30 nM; in experiment [2], 0.52 nM.
